± gives the expanded uncertainty stated by the source.
Assay: xn = mol fraction of the nth substance listed
Conditions: 101 kPa, Liquid, Vibrating tube method

CCC(C)(C)O [2-methylbutan-2-ol] + CC(=O)O
mass density (283.15 K, x2 = 0.0794): 819.64 ± 0.13 kg/m3 | mass density (283.15 K, x2 = 0.0827): 820.07 ± 0.13 kg/m3 | mass density (283.15 K, x2 = 0.1664): 832.07 ± 0.13 kg/m3 | mass density (283.15 K, x2 = 0.1672): 832.17 ± 0.13 kg/m3 | mass density (283.15 K, x2 = 0.2361): 842.73 ± 0.12 kg/m3 | mass density (283.15 K, x2 = 0.3176): 856.35 ± 0.12 kg/m3 | mass density (283.15 K, x2 = 0.3914): 869.87 ± 0.11 kg/m3 | mass density (283.15 K, x2 = 0.4798): 887.62 ± 0.1 kg/m3 | mass density (283.15 K, x2 = 0.5577): 904.94 ± 0.1 kg/m3 | mass density (283.15 K, x2 = 0.6427): 925.88 ± 0.09 kg/m3 | mass density (283.15 K, x2 = 0.7195): 946.94 ± 0.09 kg/m3 | mass density (283.15 K, x2 = 0.7999): 971.66 ± 0.09 kg/m3 | mass density (283.15 K, x2 = 0.8769): 998.52 ± 0.09 kg/m3 | mass density (283.15 K, x2 = 0.96): 1031.62 ± 0.1 kg/m3 | mass density (293.15 K, x2 = 0.0794): 814.95 ± 0.14 kg/m3 | mass density (293.15 K, x2 = 0.0827): 815.38 ± 0.14 kg/m3 | mass density (293.15 K, x2 = 0.1664): 827.35 ± 0.13 kg/m3 | mass density (293.15 K, x2 = 0.1672): 827.45 ± 0.13 kg/m3 | mass density (293.15 K, x2 = 0.2361): 838.01 ± 0.12 kg/m3 | mass density (293.15 K, x2 = 0.3176): 851.61 ± 0.12 kg/m3 | mass density (293.15 K, x2 = 0.3914): 865.1 ± 0.11 kg/m3 | mass density (293.15 K, x2 = 0.4798): 882.8 ± 0.11 kg/m3 | mass density (293.15 K, x2 = 0.5577): 900.05 ± 0.1 kg/m3 | mass density (293.15 K, x2 = 0.6427): 920.88 ± 0.09 kg/m3 | mass density (293.15 K, x2 = 0.7195): 941.83 ± 0.09 kg/m3 | mass density (293.15 K, x2 = 0.7999): 966.42 ± 0.09 kg/m3 | mass density (293.15 K, x2 = 0.8769): 993.12 ± 0.09 kg/m3 | mass density (293.15 K, x2 = 0.96): 1026.04 ± 0.09 kg/m3 | mass density (303.15 K, x2 = 0.0794): 810.22 ± 0.18 kg/m3 | mass density (303.15 K, x2 = 0.0827): 810.64 ± 0.15 kg/m3 | mass density (303.15 K, x2 = 0.1664): 822.59 ± 0.13 kg/m3 | mass density (303.15 K, x2 = 0.1672): 822.69 ± 0.13 kg/m3 | mass density (303.15 K, x2 = 0.2361): 833.24 ± 0.13 kg/m3 | mass density (303.15 K, x2 = 0.3176): 846.84 ± 0.12 kg/m3 | mass density (303.15 K, x2 = 0.3914): 860.3 ± 0.11 kg/m3 | mass density (303.15 K, x2 = 0.4798): 877.94 ± 0.11 kg/m3 | mass density (303.15 K, x2 = 0.5577): 895.12 ± 0.1 kg/m3 | mass density (303.15 K, x2 = 0.6427): 915.86 ± 0.1 kg/m3 | mass density (303.15 K, x2 = 0.7195): 936.71 ± 0.09 kg/m3 | mass density (303.15 K, x2 = 0.7999): 961.16 ± 0.09 kg/m3 | mass density (303.15 K, x2 = 0.8769): 987.72 ± 0.09 kg/m3 | mass density (303.15 K, x2 = 0.96): 1020.47 ± 0.09 kg/m3 | mass density (313.15 K, x2 = 0.0794): 800.6 ± 0.14 kg/m3 | mass density (313.15 K, x2 = 0.0827): 801.02 ± 0.14 kg/m3 | mass density (313.15 K, x2 = 0.1664): 812.92 ± 0.14 kg/m3 | mass density (313.15 K, x2 = 0.1672): 813.02 ± 0.14 kg/m3 | mass density (313.15 K, x2 = 0.2361): 823.57 ± 0.13 kg/m3 | mass density (313.15 K, x2 = 0.3176): 837.15 ± 0.12 kg/m3 | mass density (313.15 K, x2 = 0.3914): 850.57 ± 0.12 kg/m3 | mass density (313.15 K, x2 = 0.4798): 868.11 ± 0.11 kg/m3 | mass density (313.15 K, x2 = 0.5577): 885.16 ± 0.11 kg/m3 | mass density (313.15 K, x2 = 0.6427): 905.72 ± 0.1 kg/m3 | mass density (313.15 K, x2 = 0.7195): 926.37 ± 0.1 kg/m3 | mass density (313.15 K, x2 = 0.7999): 950.58 ± 0.09 kg/m3 | mass density (313.15 K, x2 = 0.8769): 976.88 ± 0.09 kg/m3 | mass density (313.15 K, x2 = 0.96): 1009.32 ± 0.09 kg/m3 | mass density (323.15 K, x2 = 0.0794): 790.72 ± 0.15 kg/m3 | mass density (323.15 K, x2 = 0.0827): 791.14 ± 0.14 kg/m3 | mass density (323.15 K, x2 = 0.1664): 803.02 ± 0.14 kg/m3 | mass density (323.15 K, x2 = 0.1672): 803.12 ± 0.14 kg/m3 | mass density (323.15 K, x2 = 0.2361): 813.68 ± 0.13 kg/m3 | mass density (323.15 K, x2 = 0.3176): 827.25 ± 0.13 kg/m3 | mass density (323.15 K, x2 = 0.3914): 840.64 ± 0.12 kg/m3 | mass density (323.15 K, x2 = 0.4798): 858.1 ± 0.11 kg/m3 | mass density (323.15 K, x2 = 0.5577): 875.04 ± 0.11 kg/m3 | mass density (323.15 K, x2 = 0.6427): 895.44 ± 0.1 kg/m3 | mass density (323.15 K, x2 = 0.7195): 915.92 ± 0.1 kg/m3 | mass density (323.15 K, x2 = 0.7999): 939.91 ± 0.09 kg/m3 | mass density (323.15 K, x2 = 0.8769): 965.96 ± 0.09 kg/m3 | mass density (323.15 K, x2 = 0.96): 998.13 ± 0.09 kg/m3 | mass density (333.15 K, x2 = 0.0794): 780.53 ± 0.15 kg/m3 | mass density (333.15 K, x2 = 0.0827): 780.94 ± 0.15 kg/m3 | mass density (333.15 K, x2 = 0.1664): 792.86 ± 0.14 kg/m3 | mass density (333.15 K, x2 = 0.1672): 792.96 ± 0.14 kg/m3 | mass density (333.15 K, x2 = 0.2361): 803.54 ± 0.14 kg/m3 | mass density (333.15 K, x2 = 0.3176): 817.14 ± 0.13 kg/m3 | mass density (333.15 K, x2 = 0.3914): 830.51 ± 0.12 kg/m3 | mass density (333.15 K, x2 = 0.4798): 847.89 ± 0.12 kg/m3 | mass density (333.15 K, x2 = 0.5577): 864.74 ± 0.11 kg/m3 | mass density (333.15 K, x2 = 0.6427): 885.01 ± 0.11 kg/m3 | mass density (333.15 K, x2 = 0.7195): 905.33 ± 0.1 kg/m3 | mass density (333.15 K, x2 = 0.7999): 929.13 ± 0.1 kg/m3 | mass density (333.15 K, x2 = 0.8769): 954.98 ± 0.1 kg/m3 | mass density (333.15 K, x2 = 0.96): 986.89 ± 0.09 kg/m3

— the NIST ThermoML archive (doi:10.1021/je201102x)
